{"source": "patent US10888520B2", "about": "“Coated particle and method for producing coated particle” (KOBE GAKUIN EDUCATIONAL FOUNDATION, priority 2010, dated 2021)", "test": "Elution test, JP XV paddle method", "assay_type": "physicochemical", "conditions": "paddle 100 rpm, 900 ml pure water, 37° C.", "description": "The coating particles obtained in Examples 1 to 3 and the acetaminophen bulk powder were subjected to an elution test.\nThe elution test was carried out under the conditions of the number of revolutions of paddle: 100 rpm, 900 ml pure water and 37° C., in accordance with JP XV paddle method. Elution concentration of acetaminophen was obtained from an absorbance (285 nm).", "data": [{"compound": "CC(=O)Nc1ccc(O)cc1", "note": "[acetaminophen bulk powder, acetaminophen]", "values": [{"measurement": "elution concentration of acetaminophen", "setting": "after 0.5 minute", "value": 90, "unit": "%"}, {"measurement": "elution concentration of acetaminophen", "setting": "after (about) 1 minute", "value": 100, "unit": "%"}]}]}
